{"source": "patent US6337069B1", "about": "“Method of treating rhinitis or sinusitis by intranasally administering a peptidase” (B.M.R.A. Corporation B.V., priority 2001, dated 2002)", "key": {"[1]": {"system": "vasodilation evoked by capsaicin", "test": "Capsaicin-evoked vasodilation in pig nasal mucosa in vivo", "quoted_text": "Experiments were performed on pigs of both sexes (body weight 18-25 kg). All animals were premedicated with atropine (0.05 mg/kg) and ketamine (20 mg/kg i.m.). They were anesthesized with thiopentone (5 mg/kg i.v.). After tracheostomy, animals were intubated and artificially ventilated by a volume regulated ventilator. During surgery, animals were given a continuous i.v. infusion of Ringer's solution, pancuronium bromide (0.25 mg/kg) and heparin. […] Catheters were placed in the femoral artery for systemic blood pressure and heart rate monitoring and in the femoral vein for thiopentone, heparin and fluid administration (300 ml/hr). The contralateral femoral vein was canulated for blood sampling. […] Selective recording of the nasal arterial blood flow was performed with a Transonic flow probe (probe 2.4RB143) of 2.4 mm diameter placed around the sphenopalatine artery. The flow probe was connected to a T202S ultrasonic blood flowmeter. All the arterial branches situated downstream of the flow probe were ligated and cut except for the superficial temporal artery which was cannulated with a PE 90 catheter for infusions or injections.\n(§2) Variations in the area under the curve (AUC) of the sphenopalatine artery vascular resistance (Vr), derived from both mean arterial blood pressure and systemic blood flow curves, were analyzed over time. Durations of the responses of the vascular resistance were compared and all results were expressed in percent of baseline. Vascular parameters were recorded simultaneously using a 6 pen trace recorder.\n(§3) All animals were intranasally administered DPIV (50 μg, 26.5 pmoles/kg), subjected to sympathetic nerve stimulation (SNS, 15 V, 5 ms, 10 Hz for 2 minutes) and then infused with histamine (0.1-25 μg), capsacin (0.01-25 μg), bradykinin (0.001-10 μg), SP or its C-terminal fragment SP 5-11, DPPIV, or NK1 antagonist L733060 in the superficial temporal artery under controlled conditions. In each case, the vascular response of the animal was measured. This entire procedure was then repeated after local i.a. pretreatment with the alpha-adrenergic receptor antagonist phenoxybenzanime (1 mg/kg)."}, "[2]": {"test": "Basal vascular parameters in the anaesthetised pig in vivo (blood flow, heart rate, MAP, vascular resistance)", "procedure": "(§1) Each experiment lasted approximately 8 hours.\nThe basal blood flow in the internal maxillary artery of the pig under control conditions was 4.92+/−0.7 ml min^−1 kg^−1. After section of the sympathetic nerves on the left side, the homolateral nasal arterial flow was 6.1+/−0.26 ml min^−1 kg^−1 (representing a 19.34% +/−4.3% increase). The mean arterial blood pressure (MAP) was not modified by the section of the sympathetic nerves. […] Sympathetic nerve stimulation at 10 Hz for 5 minutes reduced the blood flow in the maxillary artery from 4.92+/−0.7 ml min^−1 kg^−1 to 1.40+/−0.47 ml min^−1 kg^−1, representing an […] of 71.5% and lasting more than 6 minutes. The i.a. infusion of phenoxybenzamine induced a MAP reduction of 10+/−2%."}, "[3]": {"system": "SP-evoked vasodilatory response", "test": "Modulation of SP-evoked vasodilation in pig nasal mucosa in vivo", "settings": "pretreatment 114 nmoles/kg; all doses of SP used except 100 ng", "quoted_text": "Experiments were performed on pigs of both sexes (body weight 18-25 kg). All animals were premedicated with atropine (0.05 mg/kg) and ketamine (20 mg/kg i.m.). They were anesthesized with thiopentone (5 mg/kg i.v.). After tracheostomy, animals were intubated and artificially ventilated by a volume regulated ventilator. During surgery, animals were given a continuous i.v. infusion of Ringer's solution, pancuronium bromide (0.25 mg/kg) and heparin. Each experiment lasted approximately 8 hours. Catheters were placed in the femoral artery for systemic blood pressure and heart rate monitoring and in the femoral vein for thiopentone, heparin and fluid administration (300 ml/hr). The contralateral femoral vein was canulated for blood sampling. […] Selective recording of the nasal arterial blood flow was performed with a Transonic flow probe (probe 2.4RB143) of 2.4 mm diameter placed around the sphenopalatine artery. The flow probe was connected to a T202S ultrasonic blood flowmeter. […]\nVariations in the area under the curve (AUC) of the sphenopalatine artery vascular resistance (Vr), derived from both mean arterial blood pressure and systemic blood flow curves, were analyzed over time. […] Vascular parameters were recorded simultaneously using a 6 pen trace recorder. […]"}, "[4]": {"system": "sphenopalatine vascular resistance", "test": "Vasodilator dose-response of SP and SP 5-11 in pig in vivo", "settings": "for reduction in SVR: before DPPIV", "quoted_text": "Experiments were performed on pigs of both sexes (body weight 18-25 kg). All animals were premedicated with atropine (0.05 mg/kg) and ketamine (20 mg/kg i.m.). They were anesthesized with thiopentone (5 mg/kg i.v.). After tracheostomy, animals were intubated and artificially ventilated by a volume regulated ventilator. During surgery, animals were given a continuous i.v. infusion of Ringer's solution, pancuronium bromide (0.25 mg/kg) and heparin. Each experiment lasted approximately 8 hours. Catheters were placed in the femoral artery for systemic blood pressure and heart rate monitoring and in the femoral vein for thiopentone, heparin and fluid administration (300 ml/hr). The contralateral femoral vein was canulated for blood sampling. Surgical preparation of the internal maxillary artery was done in accordance with Lacroix (Acta Physiol. Scand. 136:1-63 (1989)). Selective recording of the nasal arterial blood flow was performed with a Transonic flow probe (probe 2.4RB143) of 2.4 mm diameter placed around the sphenopalatine artery. The flow probe was connected to a T202S ultrasonic blood flowmeter. All the arterial branches situated downstream of the flow probe were ligated and cut except for the superficial temporal artery which was cannulated with a PE 90 catheter for infusions or injections.\nas §2, §3\nTherefore, the same animal was used to perform dose-response curves with SP both before and after pretreatment with DPPIV. A dose-response curve for duration of vasodilation and area under the curve was constructed using doses of SP in the range of 1 pg to 0.1 μg. […] The same animals received 50 μg (530 pmoles) of DPPIV and similar doses of SP were injected. […] Since DPPIV cleaves SP into SP 5-11, experiments were conducted to determine whether SP 5-11 is also capable of decreasing SVR."}, "[5]": {"system": "histamine vasodilatory effects", "test": "Histamine-evoked vasodilation in pig nasal mucosa in vivo", "settings": "no DPPIV", "procedure": "as §1"}, "[6]": {"settings": "SNS and PBZ pretreatment, no DPPIV, capsaicin 8.2×10^−08 moles"}}, "note": "Ends that are not written are not given here."}
{"compound": "CC(COc1ccccc1)N(CCCl)Cc1ccccc1", "note": "(centres unmarked) [phenoxybenzamine]", "values": [{"measurement": "reduction of AUC of capsaicin effect", "setting": "[1]; [6]", "value": 26.6, "unit": "%"}, {"measurement": "reduction of duration of vasodilation evoked by capsaicin", "setting": "[1]; [6]", "value": 39.9, "unit": "%"}, {"measurement": "variation of vasodilatory effect of capsaicin", "setting": "[1]; after SNS and PBZ pretreatment, any doses, no DPPIV", "value": "no significant variation"}, {"measurement": "MAP reduction", "setting": "[2]; i.a. infusion of phenoxybenzamine", "value": "10+/−2%"}]}
{"compound": "FC(F)(F)c1cc(CO[C@H]2CCCN[C@H]2c2ccccc2)cc(C(F)(F)F)c1", "note": "[L-733060]", "values": [{"measurement": "blockade of SP-induced decrease in SVR", "setting": "[3]", "value": "clear inhibition of the SP effect"}, {"measurement": "vascular effect of the antagonist", "setting": "[2]; pretreatment with 114 nmoles/kg", "value": "vasoconstrictive effect"}]}
{"compound": "COc1cc(CNC(=O)CCCCC=CC(C)C)ccc1O", "note": "[Capsaicin, 8-methyl-N-vanillyl-6-nonenamide]", "values": [{"measurement": "effect of capsaicin injection on Vr", "setting": "[1]; following SNS, similar to control conditions", "value": "dose-dependent decrease of Vr"}]}
{"compound": "SP 5-11: C-terminal fragment of SP produced by DPPIV cleavage (QQFFGLM; ends and bridges not checked; UniProt P20366 62-68, looked up, fragment)", "values": [{"measurement": "decrease in SVR", "setting": "[4]; SP 5-11 10 pg", "value": 5, "unit": "%"}, {"measurement": "decrease in SVR", "setting": "[4]; SP 5-11 1 μg", "value": 35, "unit": "%"}, {"measurement": "SP 5-11 less potent than SP at causing vasodilation", "setting": "[4]; pig, in vivo", "value": "at least 100 fold"}]}
{"compound": "NCCc1c[nH]cn1", "note": "[Histamine]", "values": [{"measurement": "reduction in duration of histamine effect vs control", "setting": "[5]; histamine i.a. 1.4×10^−07 moles following SNS 10 Hz 5 minutes", "value": 32, "unit": "%"}, {"measurement": "reduction in duration of histamine effect vs control", "setting": "[5]; histamine i.a. 5.4×10^−09 moles following SNS 10 Hz 5 minutes", "value": 33, "unit": "%"}]}
{"compound": "SP: substance P, bioactive peptide released by sensory neurons; NK1 agonist", "values": [{"measurement": "reduction in SVR", "setting": "[4]; SP 100 pg", "value": 13.1, "unit": "%"}, {"measurement": "reduction in SVR", "setting": "[4]; SP 1 ng", "value": 14.9, "unit": "%"}, {"measurement": "potency of SP relative to SP 5-11 as a vasodilator", "setting": "[4]; based on molarity", "value": 200, "unit": "fold"}, {"measurement": "vasodilation", "setting": "[4]; local intraarterial administration of 1 pg SP", "value": 15.1, "unit": "% +/−3.3%"}, {"measurement": "vasodilation", "setting": "[4]; local intraarterial administration of 100 ng SP", "value": 37.3, "unit": "% +/−3.3%"}]}
